Data as given in patent publication US20250339531A1, “DUX4 POLYPEPTIDES AND NUCLEIC ACIDS FOR TREATING INFLAMMATORY AND AUTOIMMUNE CONDITIONS” (Fred Hutchinson Cancer Center, priority 2021, published 2025).
Entries after “also recorded” stand apart in the source; their conditions may differ.

Tests used:
Format in all cases: cell-based, human
[1] = test system: H3.X/Y; assay: Immunoblot of DUX4 target H3.X/Y proteins; conditions: MB135 cells, continuous or pulsed protocol
Description: (§1) Protein samples were harvested in RIPA buffer [150 mM NaCl, 1% NP-40, 0.5% Na-deocycholate, 1% SDS, 25 mM Tris-HCl pH7.4] supplemented with protease and phosphatase inhibitor tablets (Pierce), followed by sonication in Diagenode Bioruptor. Lysate was cleared by centrifugation at 16000×g and quantified using a Pierce BCA assay (Thermo Fisher Scientific). Samples were run on NuPAGE precast polyacrylamide gels (Invitrogen) and transferred to PVDF membrane. Membranes were blocked in PBS containing 0.1% Tween-20 and 5% non-fat dry milk before overnight incubation at 4° C. with primary antibodies (see resource table for a list of antibodies used in this study). Membranes were incubated with horseradish peroxidase-conjugated secondary antibodies for 1 hour at room temperature and SuperSignal chemiluminescent substrate (Thermo Scientific) was used for detection on film with a Mini-medical 90 processor. Membranes were stripped with Restore Western Blot Stripping Buffer (Pierce).

[2] = test system: HLA-E; assay: Immunoblot of non-canonical MHC class I HLA-E; conditions: MB135iDUX4 cells
Description: as §1

[3] = test system: translational efficiency (TE); assay: Ribosome footprinting (Ribo-seq) paired with RNA-seq; conditions: DUX4 pulse+IFNG versus IFNG, 68 hours
Description: Ribo-seq was performed as described previously (Calviello et al., 2016) using two 70% confluent 15 cm plates of MB135iDUX4 myoblasts per treatment condition (n=3). MB135iDUX4 myoblasts were pulsed with or without doxycycline for 4 hours, incubated for 48 hours, supplemented with or without 50 ng/mL IFNG for 16 hours, and harvested at a terminal time point of 68 hours. To harvest, media was aspirated and each 15 cm plate of adherent cells was rinsed with 25 mL ice-cold PBS supplemented with 100 μg/mL cycloheximide (Sigma). After thorough removal of the PBS, plates were immersed in liquid nitrogen and placed on dry ice. Cells were lysed in mammalian polysome lysis buffer (20 mM Tris-HCl, pH 7.4, 150 mM NaCl, 5 mM MgCl2, 1 mM DTT, 100 μg/mL cycloheximide added fresh) supplemented with 1% Triton X-100 and 25 U/ml Turbo DNase (Ambion), transferred to wet ice, harvested by scraping and further lysed by trituration ten times through a 26-gauge needle. Lysates were cleared by centrifugation at 20,000×g for 10 min at 4° C., flash frozen in liquid nitrogen, and stored at −80° C. To isolate ribosome-protected RNA fragments, lysates were thawed, digested with 2.5 U/μL RNase I (Ambion) for 45 minutes at room temperature with gentle mixing, and treated with 0.65 U/μL SUPERaseIn RNase Inhibitor (Thermo Fisher Scientific) to stop nuclease activity. Ribosome complexes were isolated using MicroSpin S-400 HR Columns (GE Healthcare) and RNA extracted using the Direct-zol RNA Miniprep Kit (Zymo Research). The rRNA Removal Mix—Gold component of Illumina's TruSeq Stranded Total RNA Library Prep Gold kit was used to deplete rRNAs. Samples were precipitated using GlycoBlue Coprecipitant (Ambion) as carrier, 0.1 volume 3M sodium acetate and 3 volumes 100% Ethanol, incubated at −80° C. overnight, centrifuged for 45 minutes at 20,000×g at 4° C., and RNA pellet dissolved in nuclease-free ultrapure water. Ribosome-protected fragments were isolated by running samples on a 15% TBE-Urea gel with 10 bp DNA Ladder (Promega) and Marker-27nt and Marker-30nt (data not shown). […]

[4] = test system: MHC class I proteins (HLA-A/B/C); assay: Immunoblot of IFNG-induced MHC class I protein, continuous or pulsed protocol, MB135 myoblasts; conditions: MB135 cells; for suppression of IFNG-induced MHC class I protein, pulsed protocol: 4 h doxycycline pulse, IFNG added later for 16 h; for suppression of IFNG-induced MHC class I protein, continuous protocol: doxycycline 20 h, IFNG last 16 h
Description: In the “continuous” protocol (similar to the experiments shown in the prior FIGS. 1, 2, 4, 5, and 6), doxycycline is added to induce DUX4 expression at time 0 and four hours later IFNG is added for an additional 16 hours, resulting in 20 hours of continuous DUX4 induction with the last 16 hrs exposed to IFNG.
In the “pulsed” protocol, doxycycline is added at time 0 to induce DUX4 expression, but after four hours the media is changed to remove the doxycycline, resulting in a pulse of DUX4 mRNA and protein sufficient to induce DUX4 target gene expression (see Resnick et al., Cell Rep. 2019 Nov. 12; 29(7):1812-1820.e5). IFNG is added at 28 hours for a period of 16 hours prior to harvesting the cells. […] This difference is not likely to be due to different amounts of the DUX4 and mutant DUX4 proteins because at the time of harvest both DUX4 and the F67A mutant DUX4 protein levels have declined to similarly low amounts relative to the continuous protocol, but could be due to the activation of DUX4 target genes by the full-length DUX4 since the H3.X/Y proteins show persistent expression in the pulsed protocol.
as §1

[5] = test system: HLA-A, HLA-B, HLA-C, PSMB8, PSMB9, PSMB10 mRNA nuclear export; assay: Subcellular fractionation of nuclear and cytoplasmic mRNAs and proteins; conditions: DUX4 pulse, IFNG, 44 hours, data not shown
Description: MB135iDUX4 myoblasts were pulsed with doxycycline for 4 hours, incubated for 24 hours, supplemented with 50 ng/mL IFNG for 16 hours, and harvested at a terminal time point of 44 hours. Samples divided for whole-cell lysate (WCL) and subcellular fractionation were suspended in 300 μL ice-cold Cyto-lysis buffer (10 mM Tris pH 7.4, 10 mM NaCl, 0.2% NP-40, 1 mM DTT in nuclease free water). Subcellular fractionation samples were centrifuged at 650 RCF to pellet nuclei while cytoplasmic lysate remained in the supernatant. WCL, cytoplasmic, nuclear RNA and protein were harvested for RT-qPCR and immunoblotting, respectively.

## DUX4: human DUX4 protein SEQ ID NO:3 expressed from doxycycline inducible codon altered transgene SEQ ID NO:2
[1]
  induction of DUX4 target H3.X/Y proteins: activates a DUX4-regulated gene H3.X/Y in both protocols
[1]; listed as full-length DUX4
  induction of DUX4 target H3.X/Y proteins: are induced by the full-length DUX4
[2]
  effect on IFNG-induced HLA-E protein: does not suppress the noncanonical MHC class E (HLA-E); also recorded: maintaining HLA-E in multiple cell types
[3]
  transcripts with significantly reduced TE at the 5′UTR: 26.7%
  transcripts with significantly reduced TE at the TSS: 13.9%
  transcripts with significantly reduced TE within the first exon: 4.3%
[4]
  suppression of IFNG-induced MHC class I protein, pulsed protocol: more profound suppression of the MHC class I proteins; also recorded: even more effectively in the pulsed protocol; also recorded: elicited the same degree of suppression when assayed forty-four hours later; also recorded: suppressed HLA-A/B/C proteins even a day later
  suppression of IFNG-induced MHC class I protein, continuous protocol: modest suppression of MHC class I protein; also recorded: suppresses MHC class I proteins; also recorded: IFNG-induction of MHC-I and the immunoproteasome was suppressed; also recorded: MHC class I induction, but not HLA-E is blocked
[4]; listed as full-length DUX4
  suppression of IFNG-induced MHC class I protein, pulsed protocol: suppresses MHC class I expression as well, or slightly better, in the pulsed protocol than in the continuous protocol
  suppression of IFNG-induced MHC class I protein, continuous protocol: suppress the IFNG induction of MHC class I expression
[4]; listed as wildtype DUX4
  suppression of IFNG-induced MHC class I protein, pulsed protocol: suppressed MHC-I and immunoproteasome subunits
  suppression of IFNG-induced MHC class I protein, continuous protocol: suppressed IFNG-induced MHC-I and the immunoproteasome expression
[5]
  mRNA nuclear export and protein localization to the cytoplasm: did not disrupt
